pIC50: −log10 of the molar value. Entries after “also recorded” stand apart in the source; their conditions may differ. Read-outs that look alike come from different tables or passages of the source. Blank lines part the entries; values can stand above or below the compound they belong to.
Columns and labels:
[1] = set-up: method as in PMID 17512856, PMID 19213681; settings: by inhibiting secretion of luteinizing hormone and follicle stimulating hormone; ref [1],[2]; cited from earlier work
MCF-7hygro14 cells = experiment: SRB cell growth assay, MCF-7hygro14 (MCF-7-30-7hygro14); type: cell-based, human; settings: for effect on cell growth / effect on cell growth of co-treatment / pIC50: 4 days; for pIC50: 96 h, without co-treatment, read-out: IC50 growth inhibition
Procedure: (§1) Cells were cultured in Dulbecco's modified Eagle's medium (DMEM) with 10% fetal bovine serum. Medium for SVCT cells was supplemented with recombinant human insulin and hydrocortisone as specified by the suppliers (ECACC, UK). HEK293[SCL60] and WPE-1-NB26-8 cells were cultured as described elsewhere. Cells were transfected with a plasmid construct, pcDNA3.1(+) (neo) (Invitrogen, UK) containing a rat GnRH receptor cDNA insert, using Fugene 6 (Roche, UK) in Optimem-I (GIBCO, Invitrogen, UK). Cell clones growing in 6 cm dishes were picked using trypsinization in cloning cylinders (Sigma, UK) and sequentially expanded in multiwell plates and flasks prior to characterization. Sub-clones were generated by re-transfecting an individual clone with a 2.334 kb SV40 promoter-hygromycin phosphotransferase cDNA fragment excised from pcDNA3.1(-) (hygro) plasmid (Invitrogen, UK) using PvuII (Promega, UK) and purified following agarose gel electrophoresis.
(§2) Cells were seeded into 12 well plates and growth was monitored using the sulforhodamine B (SRB) staining assay described previously. Two milliliters culture medium per well was sufficient to sustain cell growth over all time courses investigated. Cells were treated with a dose range of Triptorelin or vehicle (20% propylene glycol, Sigma, UK). Similar experiments employing IGF-IR, EGFR/ErbB2 and PI3K inhibitors were performed. Assay measurements were performed in triplicate and were repeated on separate occasions. At each time point, cells were fixed by adding 1 ml 25% trichloroacetic acid to each well, stored at 4°C for 1 h before gently washing and drying plates. Fixed cells were stained with 0.4% SRB in 1% acetic acid, washed, dried and dissolved in 1 ml 0.1 M Tris pH 10. Absorbance measurements at 540 nm correlated with the number of cells per well.
(§3) Immuno-fluorescence data were analyzed by one-way ANOVA using Minitab version 16 (Minitab Inc., USA). Prism software (GraphPad, USA) was used to prepare graphs and to calculate EC50 and IC50 values. Western blots were quantified using ImageQuant software (GE Healthcare). Quantitative data were analyzed using on-line tools for T-test, http://easycalculation.com/statistics/standard-deviation.php and http://www.quantitativeskills.com/sisa/.

SVCT-2 cells = experiment: SRB cell growth assay, SVCT-2 (rat GnRH receptor transfected); type: cell-based, human; settings: for pIC50: Homo sapiens; for pIC50 / effect on cell growth of co-treatment / effect on cell growth: SRB; for effect on cell growth: single treatment
Procedure: as §1, §2, §3

HEK293[SCL60] cells = experiment: SRB cell growth assay, HEK293[SCL60]; type: cell-based, human; settings: SRB (Triptorelin: after 4 days)
Source text: Most reagents were purchased from Sigma UK, including D-Trp^6GnRH-I (D-Trp^6-LHRH, Triptorelin). Antibodies for ERK-1/2 and phosphorylated-ERK1/2 were purchased from Cell Signaling Technology, UK and for β-actin, from Sigma, UK. Secondary antibodies conjugated to alkaline phosphatase were from Sigma, UK. Insulin like growth factor receptor-I (IGF-IR) inhibitor II, EGFR/ErbB2 inhibitor and phosphatidylinositol-4,5-bisphosphate 3-kinase γ (PI3Kγ) inhibitor were purchased from Calbiochem, UK. SVCT cells were purchased from ECACC, UK. MCF-7, MDA-MB-231, ZR-75-1, and T47D cells were from American Type Culture Collection (LGC, UK). The GnRH receptor stably transfected HEK293[SCL60] and prostate WPE-1-NB26-8 cell lines described elsewhere together with HEK293 cells were used as controls for comparison.
Cells were cultured in Dulbecco's modified Eagle's medium (DMEM) with 10% fetal bovine serum. Medium for SVCT cells was supplemented with recombinant human insulin and hydrocortisone as specified by the suppliers (ECACC, UK). HEK293[SCL60] and WPE-1-NB26-8 cells were cultured as described elsewhere. […]
Cells were seeded into 12 well plates and growth was monitored using the sulforhodamine B (SRB) staining assay described previously. […] Absorbance measurements at 540 nm correlated with the number of cells per well.

MDA-MB-231-34 cells = experiment: SRB cell growth assay, MDA-MB-231-34; type: cell-based, human; settings: SRB (Triptorelin 100 nM)
Procedure: as §1
Cells were seeded into 12 well plates and growth was monitored using the sulforhodamine B (SRB) staining assay described previously. Two milliliters culture medium per well was sufficient to sustain cell growth over all time courses investigated. Cells were treated with a dose range of Triptorelin or vehicle (20% propylene glycol, Sigma, UK). […] Absorbance measurements at 540 nm correlated with the number of cells per well.

[2] = tested on: p-ERK1/2 in MCF-7hygro14 cells; experiment: p-ERK1/2 western blot, MCF-7hygro14; type: cell-based, human; settings: for ERK1/2 re-phosphorylation after inhibitor wash-off: 1 h exposure to IGF-IR inhibitor II, then medium containing serum
Procedure: (§4) Cells were grown in six-well plastic culture plates until 50-70% confluent. Some samples were washed twice with phosphate buffered saline prior to incubation in serum-free medium overnight. Cells were treated with 100 nM Triptorelin or vehicle for specific time periods prior to lysis and harvesting. Samples were processed for western blotting as described previously using NP40 lysis buffer at 4°C [8, 9]. For quantitative data, time points were measured in triplicate. Blots were imaged by a Typhoon phosphor-imager (GE Healthcare, UK) using enhanced chemi-fluorescence detection and analyzed using ImageQuant software (GE Healthcare, UK).
as §3

[3] = tested on: p-ERK1/2 in MDA-MB-231-34 cells; experiment: p-ERK1/2 western blot, MDA-MB-231-34; type: cell-based, human; settings: IGF-IR inhibitor II
Procedure: as §4, §3

[4] = tested on: p-ERK1/2 in HEK293[SCL60] cells; experiment: p-ERK1/2 western blot, HEK293[SCL60]; type: cell-based, human; settings: IGF-IR inhibitor washed off, without Triptorelin
Procedure: as §4, §3

[5] = 96 h, without co-treatment, 4 days, read-out: IC50 growth inhibition
[6] = co-treatment with 100 nM Triptorelin, 4 days
[7] = co-treatment with 100 nM Triptorelin, SRB
[8] = single treatment, SRB (Triptorelin 100 nM)
[9] = 15-20 μM IGF-IR inhibitor II, in the presence of serum
[10] = listed as IGF-I receptor inhibitor

Compound: goserelin
plasma levels of estrogen [1]: lowers plasma levels of estrogen

Compound: O=C1NC(=O)C(=Cc2ccc3nccnc3c2)S1 [PI3Kγ inhibitor, 5-Quinoxalin-6-ylmethylene-thiazolidine-2,4-dione]
effect on cell growth (MCF-7hygro14 cells; PI3K inhibitor 5 nM to 7 μM, maximum dose 7 μM): not affected
effect on cell growth (MCF-7hygro14 cells; PI3K inhibitor 5 nM to 7 μM, maximum dose 7 μM, listed as PI3K inhibitor): did not affect growth; also recorded: lack of effect
effect on cell growth of co-treatment (MCF-7hygro14 cells; PI3K inhibitor up to 7 μM with 100 nM Triptorelin): no significant growth-inhibition
effect on cell growth of co-treatment (MCF-7hygro14 cells; PI3K inhibitor up to 7 μM with 100 nM Triptorelin, listed as PI3K inhibitor): did not significantly alter this result

pIC50 (MCF-7hygro14 cells; Homo sapiens, SRB): ~5.30
Compound: COc1cc2ncnc(Nc3ccc(OCc4ccccc4)cc3)c2cc1OC [EGFR/ErbB2 inhibitor, 4-(4-Benzyloxyanilino)-6,7-dimethoxyquinazoline]
pIC50 (SVCT-2 cells; [5]): ~5.70
growth inhibition relative to vehicle treated cells (SVCT-2 cells; after 4 days, SRB staining, 540 nm, DMEM with 10% fetal bovine serum, triplicate): 50%
effect on cell growth of co-treatment (SVCT-2 cells; [6]): did not significantly affect growth; also recorded: had no effect
effect on cell growth (SVCT-2 cells; 4 days): reduced SVCT-2 cell growth
growth inhibition (MCF-7hygro14 cells; after 4 days, SRB): 50%
effect on cell growth of co-treatment (MCF-7hygro14 cells; [7]): no significant growth-inhibition; also recorded: did not significantly affect growth
effect on cell growth (MCF-7hygro14 cells; [8]): inhibited

pIC50 (MCF-7hygro14 cells; Homo sapiens, SRB): ~4.77
Compound: COc1ccc(Cl)cc1NC(=O)Nc1cc(C)nc2ccccc12 [IGF-IR inhibitor II, N-(2-Methoxy-5-chlorophenyl)-N'-(2-methylquinolin-4-yl)-urea]
pIC50 (SVCT-2 cells; [5]): ~4.96
pIC50 (SVCT-2 cells; co-treatment with 100 nM Triptorelin, read-out: apparent IC50 growth inhibition): ~5.05
effect on cell growth of co-treatment (SVCT-2 cells; [6]): small additive effect; also recorded: increased growth inhibition marginally
effect on cell growth of co-treatment (SVCT-2 cells; co-treatment with 100 nM Triptorelin, 4 days, listed as IGF-IR inhibitor): small additive growth-inhibitory effect
effect on cell growth (SVCT-2 cells; 4 days): complete growth inhibition accompanied by cell death; also recorded: effectively inhibited
inhibition at 15 µM (MCF-7hygro14 cells; Homo sapiens, 15 μM, exposure up to 2 hours, PBS washout, growth over 4 days, read-out: growth inhibition after transient exposure and washout): < 10%
effect on cell growth of co-treatment (MCF-7hygro14 cells; [7]): no significant effect
growth inhibition after transient exposure and washout (MCF-7hygro14 cells; exposure 6 hours or more, PBS washout, growth over 4 days): more than 20%
effect on cell growth (MCF-7hygro14 cells; [8]): Growth and survival were inhibited; also recorded: growth-inhibition and cell death
effect on cell growth (HEK293[SCL60] cells): inhibited
effect on cell growth (MDA-MB-231-34 cells): inhibiting their growth also
effect on levels of p-ERK1/2 [2, 9]: permanent decrease in levels of p-ERK1/2
time to decrease in p-ERK1/2 [2, 9]: ≤ 30 min
effect on levels of p-ERK1/2 ([2]; 15-20 μM IGF-IR inhibitor II, in the presence of serum, listed as IGF-IR inhibitor): rapid and sustained de-phosphorylation of ERK1/2; also recorded: rapid decrease in the levels of p-ERK1/2
ERK1/2 re-phosphorylation after inhibitor wash-off [2]: rapid hyper-phosphorylation of ERK1/2 followed by a slow decline
ERK1/2 re-phosphorylation after inhibitor wash-off [2, 10]: Rapid re-phosphorylation of ERK1/2
ERK1/2 re-phosphorylation after inhibitor wash-off ([2]; listed as IGF-IR inhibitor): rapid hyper-phosphorylation of ERK1/2, followed by a slow decline to basal levels
effect on levels of p-ERK1/2 [3]: did not elicit this effect
effect on levels of p-ERK1/2 ([3]; listed as IGF-IR inhibitor): not in MDA-MB-231-34 cells; also recorded: did not affect levels of p-ERK1/2
ERK1/2 re-phosphorylation after inhibitor wash-off [4]: hyper-phosphorylation of ERK1/2 did not occur
ERK1/2 re-phosphorylation after inhibitor wash-off [4, 10]: Re-phosphorylation of ERK1/2 was less marked
ERK1/2 re-phosphorylation after inhibitor wash-off ([4]; listed as IGFR-IR inhibitor II): rapid hyper-phosphorylation of ERK1/2 did not occur
